Entries after “also recorded” stand apart in the source; their conditions may differ.
Legend:
Huh7 cells [1] = experiment: EZ4U viability assay, Huh7; type: cell-based; conditions: up to 1,000 μM, 48 h
Protocol: Cytotoxicological analysis of ZED1227 was performed using Huh7 (human liver carcinoma, CLS Cell Lines Service GmbH, Eppelheim, Germany) and Caco-2 cells (human epithelial colorectal adenocarcinoma, Sigma Aldrich, Taufkirchen, Germany) with respect to the effect on proliferation and viability, according to the assay protocols provided by the manufacturers of the respective kits. The Cell Proliferation ELISA (BrdU, colorimetric) was purchased from Roche (Mannheim, Germany), whereas the Cell Proliferation and Cytotoxicity Assay EZ4U was purchased from Biomedica (Vienna, Austria). […]
The EZ4U assay (determination of viability) was performed by incubating the cells with ZED1227 working solution (1% DMSO in culture medium) up to a concentration of 1,000 μM for 48 h, followed by addition of a yellow tetrazolium reagent (not further specified) into the culture medium. The non-toxic tetrazolium salts were reduced to red-colored formazan which was quantified spectrophotometrically. […]

Huh7 cells [2] = experiment: BrdU cell proliferation ELISA, Huh7; type: cell-based, human; conditions: up to 1,000 μM, 24 h + 24 h
Protocol: Cytotoxicological analysis of ZED1227 was performed using Huh7 (human liver carcinoma, CLS Cell Lines Service GmbH, Eppelheim, Germany) and Caco-2 cells (human epithelial colorectal adenocarcinoma, Sigma Aldrich, Taufkirchen, Germany) with respect to the effect on proliferation and viability, according to the assay protocols provided by the manufacturers of the respective kits. The Cell Proliferation ELISA (BrdU, colorimetric) was purchased from Roche (Mannheim, Germany), whereas the Cell Proliferation and Cytotoxicity Assay EZ4U was purchased from Biomedica (Vienna, Austria). Briefly, Caco-2 cells (in MEM with 1% non-essential amino acid solution, both Sigma Aldrich (Taufkirchen, Germany), 10% fetal bovine serum, 2 mM L-glutamine, 100 U/mL penicillin–streptomycin, all from Gibco) or Huh7 cells (in DMEM low glucose, Sigma Aldrich (Taufkirchen, Germany), 10% fetal bovine serum, 1 mM sodium pyruvate, 100 U/mL penicillin–streptomycin, all from Gibco) were cultured in 96 well plates, using 2.5 μg/mL cycloheximide and 0.2 μg/mL camptothecin-treated cells as positive control. In the 5-bromo-2′-deoxyuridine (BrdU) assay (determination of cell proliferation), the cells were incubated with ZED1227 working solution (1% DMSO in culture medium) up to a concentration of 1,000 μM for 24 h, followed by addition of BrdU into the culture medium and further culturing for 24 h. […]

hTG2 = biological target: T1, hTG2 (Homo sapiens, UniProt P21980); experiment: Fluorescent transamidation assay (DCC-assay), hTG2; type: biochemical; conditions: recombinant human TG2, transamidation assay
T1 construct: purchased Zedira T022
T1 sequence (P21980 1-687): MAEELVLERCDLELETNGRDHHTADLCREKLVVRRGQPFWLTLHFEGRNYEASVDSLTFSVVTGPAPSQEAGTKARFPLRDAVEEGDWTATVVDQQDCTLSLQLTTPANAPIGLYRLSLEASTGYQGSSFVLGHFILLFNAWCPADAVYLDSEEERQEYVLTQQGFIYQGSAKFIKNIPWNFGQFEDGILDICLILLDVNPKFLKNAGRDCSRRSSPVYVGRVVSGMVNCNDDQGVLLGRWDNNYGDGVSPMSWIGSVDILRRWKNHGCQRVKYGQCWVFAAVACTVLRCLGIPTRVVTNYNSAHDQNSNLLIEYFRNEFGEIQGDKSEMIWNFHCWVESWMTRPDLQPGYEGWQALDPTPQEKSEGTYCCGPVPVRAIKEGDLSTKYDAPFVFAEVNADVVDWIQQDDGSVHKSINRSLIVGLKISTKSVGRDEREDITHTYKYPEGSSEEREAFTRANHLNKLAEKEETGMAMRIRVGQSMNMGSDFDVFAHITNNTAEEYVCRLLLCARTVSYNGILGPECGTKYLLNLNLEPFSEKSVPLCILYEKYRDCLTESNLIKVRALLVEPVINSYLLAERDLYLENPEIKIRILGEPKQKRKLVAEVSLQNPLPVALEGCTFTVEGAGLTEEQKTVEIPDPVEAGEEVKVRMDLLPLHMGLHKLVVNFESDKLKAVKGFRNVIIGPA
Protocol: Inhibition data were determined using the fluorescent transamidation assay (dansylcadaverine incorporation into glutamine-donor substrate N,N-dimethyl casein, DCC-assay). Briefly, to 15 μL of ZED1227 solution (dissolved and serial diluted in 2% (v/v) DMSO/assay buffer), 285 μL assay buffer [47.5 mM tris(hydroxymethyl)aminomethane, 9.5 mM CaCl2, 9.5 mM glutathione, 2.4% (v/v) glycerol, 190 mM NaCl, pH 8.0] containing dansylcadaverine (15.9 μM), N,N-dimethyl casein (3.8 μM) and the indicated recombinant transglutaminase enzyme [0.95 μg/mL hTG1 (T035), 0.81 μg/mL hTG2 (T022), 0.83 μg/mL hTG6 (T021), all from Zedira] were added, mixed and the kinetic measurement started immediately. In the case of hFXIII-A2 (0.83 μg/mL, T027, Zedira), the assay buffer contained human α-thrombin (5.2 × 10^−3 U/μL, T056, Zedira). The mixture was incubated for 20 min at room temperature to activate FXIII. In the case of hTG3a (0.81 μg/mL, T013, Zedira), full enzymatic activity was obtained by incubation for 80 min at 37 °C in assay buffer before addition of the inhibitor and start of the kinetics.
Fluorescence emission was continuously monitored for 30 min at λem = 500 nm (λex = 330 nm) and 37 °C using a CLARIOstar fluorescence plate reader (BMG Labtech, Ortenberg, Germany). All measurements were performed in triplicate. The respective IC50 (and IC90 for TG2) values were calculated by non-linear regression using the MARS software package (BMG Labtech). An irreversible-acting inhibitor, such as ZED1227, should, correctly, be characterized by the second-order rate constant k2nd, as detailed by Keillor [46]. However, such data are rather abstract and difficult to comprehend.
To facilitate comparability during lead structure optimization and to roughly estimate concentrations needed at the target site, the apparent IC50 values (calculated by four-parameter non-linear fit by MARS software) for irreversible inhibitors are more instructive and are therefore reported. Further, we report the potency of commercially available reference inhibitors Z006 (“Z-DON”), Z013 (ZED754), and T101 (all Zedira). To gain deeper mechanistic insight, we discuss the second-order rate constants (k2nd) published for Z006 and ZED754 in relation to their respective IC50 values.

[3] = logD by shake flask method (octanol/PBS pH 7.4); type: physicochemical
Protocol: (§1) The logD value (distribution coefficient) of the compound was determined by means of the shake flask method, measuring the distribution of the solute in octanol and phosphate-buffered saline (PBS, pH 7.4). The concentration of ZED1227 in the immiscible solvents was determined by HPLC (vide supra). The stability in PBS (pH 7.4 or acidified to pH 5.0), in artificial gastric, and intestinal fluid was calculated as the percentage of residual parent compound after incubation for 24 h at 37 °C, using an initial concentration of 100 μM.

[4] = Stability in PBS and artificial gastric and intestinal fluid (residual parent compound); type: physicochemical; conditions: for Stability in PBS/saline (residual parent compound): initial 100 μM
Protocol: as §1

With `CCC(CC)CNC(=O)Cn1cccc(NC(=O)[C@H](CC/C=C/C(=O)OC)NC(=O)c2cncn2C)c1=O` [ZED1227, (S,E)-Methyl 7-(1-(2-(2-ethylbutylamino)-2-oxoethyl)-2-oxo-1,2-dihydropyridin-3-ylamino)-6-(1-methyl-1H-imidazole-5-carboxamido)-7-oxohept-2-enoate] the “Cytotoxicity: Viability, Huh7 cells” value (Huh7 cells [1]) was “not cytotoxic up to 1,000 μM; also recorded: no effect up to 1,000 μM no effect up to 1,000 μM no effect up to 1,000 μM no effect up to 1,000 μM”, the “Cytotoxicity: Proliferation, Huh7 cells” value (Huh7 cells [2]) was “nor did it affect cell proliferation rates; also recorded: no effect up to 1,000 μM no effect up to 1,000 μM no effect up to 1,000 μM no effect up to 1,000 μM” and the IC90 (hTG2) was 300 nM. For the same molecule, the IC50 (hTG2; apparent IC50 of irreversible inhibitor, read-out: App. IC50 hTG2) was 53 nM, the logD [3] was 2 and the “Recovery at low pH and in simulated gastric and intestinal fluid” value ([4]; after 24 h, summary statement) was over 80%. The “Stability in PBS/saline (residual parent compound)” value ([4]; pH 5.0, 24 h, 37 °C) was 89%, the “Stability in PBS/saline (residual parent compound)” value ([4]; pH 7.4, 24 h, 37 °C) was 10% and the “Stability in artificial gastric fluid (residual parent compound)” value ([4]; simulated gastric fluid pH 1.2, 24 h, 37 °C) was 95%. For the same molecule, the “Stability in artificial intestinal fluid (residual parent compound)” value ([4]; simulated intestinal fluid pH 6.5, 24 h, 37 °C) was 82%.

— paper PMC9139979, “Features of ZED1227: The First-In-Class Tissue Transglutaminase Inhibitor Undergoing Clinical Evaluation for the Treatment of Celiac Disease” (Cells, 2022)
